Patent US20110071150A1 (priority 2009, published 2011)

Tested on: Jurkat IL-2 Production
Experiment: Jurkat IL-2 Production Assay
Format: cell-based
Settings: Homo sapiens, Jurkat cell (ATCC), 18-20 h incubation, PHA 5 μg/mL with 1% FBS, or PMA/Ionomycin with 30% FBS (table does not say which)
Summary of the method: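 Jurkat cells were exposed to compound (0.25% DMSO final) for 10 min, then stimulated for 18–20 h at 37 °C. The 1% FBS condition used 5 μg/mL PHA; the high-serum condition (30% FBS) used 50 ng/mL PMA plus 500 ng/mL ionomycin. IC50 was derived from IL-2 production.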

Row | IC50 [nM] | SMILES
1 | 72 | CN(C)S(=O)(=O)c1ccc(-c2ccc3[nH]c(-c4c(F)cccc4F)cc3c2)c(C(F)(F)F)c1 [Example 97, 4-[2-(2,6-Difluoro-phenyl)-1H-indol-5-yl]-N,N-dimethyl-3-trifluoromethyl-benzenesulfonamide]
2 | 279 | COc1ccc(-c2ccc3[nH]c(-c4c(F)cccc4F)cc3c2)c(Cl)c1 [Example 98, 5-(2-Chloro-4-methoxy-phenyl)-2-(2,6-difluoro-phenyl)-1H-indole]
3 | 344 | COc1ccc(-c2ccc3[nH]c(-c4c(F)cccc4F)cc3c2)c(C(F)(F)F)c1 [Example 99, 2-(2,6-Difluoro-phenyl)-5-(4-methoxy-2-trifluoromethyl-phenyl)-1H-indole]
4 | 307 | Cc1cc(OC(F)(F)F)ccc1-c1ccc2[nH]c(-c3c(F)cccc3F)cc2c1 [Example 100, 2-(2,6-Difluoro-phenyl)-5-(2-methyl-4-trifluoromethoxy-phenyl)-1H-indole]
5 | 593 | COc1ccc(-c2ccc3[nH]c(-c4c(F)cccc4F)cc3c2)c(C)n1 [Example 101, 2-(2,6-Difluoro-phenyl)-5-(6-methoxy-2-methyl-pyridin-3-yl)-1H-indole]
6 | 74 | Cc1cc(-c2ncco2)ccc1-c1ccc2[nH]c(-c3c(F)cccc3F)cc2c1 [Example 102, 2-(2,6-Difluoro-phenyl)-5-(2-methyl-4-oxazol-2-yl-phenyl)-1H-indole]
7 | 176 | COc1cc(-c2ncco2)ccc1-c1ccc2[nH]c(-c3c(F)cccc3F)cc2c1 [Example 103, 2-(2,6-Difluoro-phenyl)-5-(2-methoxy-4-oxazol-2-yl-phenyl)-1H-indole]
8 | 178 | Cc1cc(N2CCNCC2)ncc1-c1ccc2[nH]c(-c3c(F)cccc3F)cc2c1 [Example 104, 2-(2,6-Difluoro-phenyl)-5-(4-methyl-6-piperazin-1-yl-pyridin-3-yl)-1H-indole]
9 | 664 | Cc1sc(-c2ccnnc2)nc1-c1ccc2[nH]c(-c3c(F)cccc3F)cc2c1 [Example 105, 2-(2,6-Difluoro-phenyl)-5-(5-methyl-2-pyridazin-4-yl-thiazol-4-yl)-1H-indole]
10 | 488 | Cc1sc(I)nc1-c1ccc2[nH]c(-c3c(F)cccc3F)cc2c1 [Example 106, 2-(2,6-Difluoro-phenyl)-5-(2-iodo-5-methyl-thiazol-4-yl)-1H-indole]
11 | 601 | Cn1nc(-c2cc[nH]n2)cc1-c1ccc2[nH]c(-c3c(F)cccc3F)cc2c1 [Example 108, 2-(2,6-Difluoro-phenyl)-5-(1-methyl-1H,1′H-[3,3]bipyrazolyl-5-yl)-1H-indole]
12 | 190 | Cn1nc(-c2ncco2)cc1-c1ccc2[nH]c(-c3c(F)cccc3F)cc2c1 [Example 110, 2-(2,6-Difluoro-phenyl)-5-(2-methyl-5-oxazol-2-yl-2H-pyrazol-3-yl)-1H-indole]
13 | 318 | Cn1nc(Br)cc1-c1ccc2[nH]c(-c3c(F)cccc3F)cc2c1 [Example 111, 5-(5-Bromo-2-methyl-2H-pyrazol-3-yl)-2-(2,6-difluoro-phenyl)-1H-indole]
14 | 843 | COc1cc(C)c(-c2ccc3[nH]c(-c4ccccc4F)cc3c2)cn1 [Example 112, 2-(2-Fluoro-phenyl)-5-(6-methoxy-4-methyl-pyridin-3-yl)-1H-indole]
15 | 60 | COc1cc(C)c(-c2ccc3[nH]c(-c4c(F)cccc4F)cc3c2)cn1 [Example 113, 2-(2,6-Difluoro-phenyl)-5-(6-methoxy-4-methyl-pyridin-3-yl)-1H-indole]
16 | 39 | Cn1nc(-c2cccnc2)nc1-c1ccc2[nH]c(-c3c(F)cccc3F)cc2c1 [Example 114, 2-(2,6-Difluoro-phenyl)-5-(2-methyl-5-pyridin-3-yl-2H-[1,2,4]triazol-3-yl)-1H-indole]
17 | 38 | Cc1cc(-c2nnco2)ccc1-c1ccc2[nH]c(-c3c(F)cccc3Cl)cc2c1 [Example 115, 2-(2-Chloro-6-fluoro-phenyl)-5-(2-methyl-4-[1,3,4]oxadiazol-2-yl-phenyl)-1H-indole]
18 | 12 | Cn1nc(-c2cccnc2)nc1-c1ccc2[nH]c(-c3c(F)cccc3Cl)cc2c1 [Example 116, 2-(2-Chloro-6-fluoro-phenyl)-5-(2-methyl-5-pyridin-3-yl-2H-[1,2,4]-triazol-3-yl)-1H-indole]
19 | 19 | COC(=O)c1cc(C)c(-c2ccc3[nH]c(-c4c(F)cccc4Cl)cc3c2)cn1 [Example 117, 5-[2-(2-Chloro-6-fluoro-phenyl)-1H-indol-5-yl]-4-methyl-pyridine-2-carboxylic acid methyl ester]
20 | 180 | CNC(=O)c1cc(C)c(-c2ccc3[nH]c(-c4c(F)cccc4Cl)cc3c2)cn1 [Example 118, 5-[2-(2-Chloro-6-fluoro-phenyl)-1H-indol-5-yl]-4-methyl-pyridine-2-carboxylic acid methylamide]
21 | 14 | Cc1cc(-c2nnco2)ncc1-c1ccc2[nH]c(-c3c(F)cccc3Cl)cc2c1 [Example 119, 2-(2-Chloro-6-fluoro-phenyl)-5-(4-methyl-6-[1,3,4]oxadiazol-2-yl-pyridin-3-yl)-1H-indole]

Row | IC50 [nM] | SMILES
22 | 19 | Cc1nnc(-c2cc(C)c(-c3ccc4[nH]c(-c5c(F)cccc5Cl)cc4c3)cn2)o1 [Example 120, 2-(2-Chloro-6-fluoro-phenyl)-5-[4-methyl-6-(5-methyl-[1,3,4]oxadiazol-2-yl)-pyridin-3-yl]-1H-indole]
23 | 12 | COc1cc(C)c(-c2ccc3[nH]c(-c4c(F)cccc4Cl)cc3c2)cn1 [Example 121, 2-(2-Chloro-6-fluoro-phenyl)-5-(6-methoxy-4-methyl-pyridin-3-yl)-1H-indole]
24 | 260 | COc1cnc(-c2ccc3[nH]c(-c4c(F)cccc4Cl)cc3c2)c(C)c1 [Example 122, 2-(2-Chloro-6-fluoro-phenyl)-5-(5-methoxy-3-methyl-pyridin-2-yl)-1H-indole]
25 | 448 | COc1ccc(-c2ccc3[nH]c(-c4c(F)cccc4Cl)cc3c2)c(C)n1 [Example 123, 2-(2-Chloro-6-fluoro-phenyl)-5-(6-methoxy-2-methyl-pyridin-3-yl)-1H-indole]
26 | 11 | CCn1nc(-c2cccnc2)nc1-c1ccc2[nH]c(-c3c(F)cccc3Cl)cc2c1 [Example 124, 2-(2-Chloro-6-fluoro-phenyl)-5-(2-ethyl-5-pyridin-3-yl-2H-[1,2,4]triazol-3-yl)-1H-indole]
27 | 49 | Cc1sc(-c2ncco2)nc1-c1ccc2[nH]c(-c3c(F)cccc3Cl)cc2c1 [Example 125, 2-(2-Chloro-6-fluoro-phenyl)-5-(5-methyl-2-oxazol-2-yl-thiazol-4-yl)-1H-indole]
28 | 106 | COC(=O)c1ccc(-c2ccc3[nH]c(-c4ccccc4Cl)cc3c2)c(C)c1 [Example 126]
29 | 991 | CNC(=O)c1ccc(-c2ccc3[nH]c(-c4ccccc4Cl)cc3c2)c(C)c1 [Example 127, 4-[2-(2-Chloro-phenyl)-1H-indol-5-yl]-3,N-dimethyl-benzamide]
30 | 776 | Cc1cc(C(N)=O)ccc1-c1ccc2[nH]c(-c3ccccc3Cl)cc2c1 [Example 128, 4-[2-(2-Chloro-phenyl)-1H-indol-5-yl]-3-methyl-benzamide]
31 | 237 | Cc1cc(C#N)ccc1-c1ccc2[nH]c(-c3ccccc3Cl)cc2c1 [Example 129, 4-[2-(2-Chloro-phenyl)-1H-indol-5-yl]-3-methyl-benzonitrile]
32 | 16 | Cc1cc(S(=O)(=O)N(C)C)ccc1-c1ccc2[nH]c(-c3ccccc3Cl)cc2c1 [Example 130, 4-[2-(2-Chloro-phenyl)-1H-indol-5-yl]-3,N,N-trimethyl-benzenesulfonamide]
33 | 149 | COC(=O)c1ccc(-c2ccc3[nH]c(-c4ccc(C(=O)OC)cc4C)cc3c2)c(C)c1 [Example 131, 4-[5-(4-carbomethoxy-2-methyl-phenyl)-1H-indol-2-yl]-3-methyl-benzoic acid methyl ester]
34 | 319 | COc1ccc(-c2cc3cc(-c4ccc(C#N)cc4C)ccc3[nH]2)c(Cl)c1 [Example 132, 4-[2-(2-Chloro-4-methoxy-phenyl)-1H-indol-5-yl]-3-methyl-benzonitrile]
35 | 976 | Cc1cc(C#N)ccc1-c1ccc2[nH]c(-c3ccc(S(C)(=O)=O)cc3F)cc2c1 [Example 133, 4-[2-(2-Fluoro-4-methanesulfonyl-phenyl)-1H-indol-5-yl]-3-methyl-benzonitrile]
36 | 163 | Cc1cc(C#N)ccc1-c1ccc2[nH]c(-c3cccc(C#N)c3F)cc2c1 [Example 134, 4-[2-(2-Fluoro-3-cyano-phenyl)-1H-indol-5-yl]-3-methyl-benzonitrile]
37 | 283 | COc1cc(F)c(-c2cc3cc(-c4ccc(C#N)cc4C)ccc3[nH]2)c(F)c1 [Example 135, 4-(2-(2,6-difluoro-4-methoxyphenyl)-1H-indol-5-yl)-3-methylbenzonitrile]
38 | 370 | Cc1cc(C#N)ccc1-c1ccc2[nH]c(-c3ccccc3F)cc2c1 [Example 136, 4-(2-(2-fluorophenyl)-1H-indol-5-yl)-3-methylbenzonitrile]
39 | 132 | Cc1cc(C#N)ccc1-c1ccc2[nH]c(-c3ccc(C#N)cc3C)cc2c1 [Example 137, 4-(2-(4-Cyano-2-methylphenyl)-1H-indol-5-yl)-3-methylbenzonitrile]
40 | 101 | Cc1cc(C#N)ccc1-c1ccc2[nH]c(-c3cc(C#N)ccc3Cl)cc2c1 [Example 138, 4-(2-(2-Chloro-5-cyanophenyl)-1H-indol-5-yl)-3-methylbenzonitrile]
41 | 162 | COc1ccc(-c2cc3cc(-c4ccc(C#N)cc4C)ccc3[nH]2)c(C)n1 [Example 139, 4-(2-(6-methoxy-2-methylpyridin-3-yl)-1H-indol-5-yl)-3-methylbenzonitrile]
42 | 142 | COc1nccc(-c2cc3cc(-c4ccc(C#N)cc4C)ccc3[nH]2)c1Cl [Example 140, 4-(2-(3-chloro-2-methoxypyridin-4-yl)-1H-indol-5-yl)-3-methylbenzonitrile]
